Results taken from publication PMC6346638, “Recognition of Peptidoglycan Fragments by the Transpeptidase PBP4 From Staphylococcus aureus” (Frontiers in Microbiology, 2019).
“Also recorded” adds a separate entry of the source. Non-standard residues stand in square brackets, D forms with d. No end group written: not given here.

Tests used:
PBP4 [1] = experiment: X-ray crystallography, ligand soaking of PBP4 crystals; format: binding, Staphylococcus aureus; settings: soaking with ampicillin and synthetic pentapeptide stem
PBP4(S75C) [2] = experiment: X-ray crystallography, ligand soaking of PBP4(S75C) crystals; format: binding, Staphylococcus aureus; settings: soak with 1 mM ampicillin and 8 mM pentapeptide, 40–60 min; 1.86 Å
Experimental: PBP4(S75C) was crystallized using the sitting drop vapor diffusion method with streak seeding. Protein at 25–35 mg mL^−1 was added to precipitant solution (8 mM zinc chloride, 80 mM sodium acetate pH 5, 100 mM sodium fluoride, and 16% polyethylene glycol 6000) in a 1:1 (v/v) ratio and incubated at 23°C. Immediately after mixing the protein and precipitant solution, the drops were streak-seeded with a housecat whisker that had been swished through a drop containing PBP4(S75C) crystals. […] Crystals were then promptly harvested and stored in liquid nitrogen.
Data collection was performed under cryogenic temperatures (100 K) at the Advanced Light Source synchrotron (U.C. Berkeley) on beamline 5.0.2. Data from one crystal that diffracted to 1.9 Å resolution were processed using Xia2 (Winter et al., [2013]) and XDS (Kabsch, [2010]) with a space group of C121 and merged with Aimless in the CCP4 software package (Winn et al., [2011]). Phaser (McCoy et al., [2007]) was employed to solve the structure by molecular replacement using PDB ID 5TXI as the starting model. The Phenix suite of programs was used for model generation and refinement (Adams et al., [2010]). Briefly, AutoBuild was used with several iterative rounds of manual manipulation of the model with Coot (Emsley et al., [2010]) followed by refinement with Phenix.refine with TLS being used in the later stages of refinement.

[3] = test system: S. aureus laboratory mutant 27s; settings: deletion of PBP4 in mutant 27s; ref Leski and Tomasz, 2005; cited from earlier work
Source text: S. aureus PBP4 is an unusual class C PBP showing TPase activity in vivo (Loskill et al., [2014]; Hamilton et al., [2017]) and in vitro (Qiao et al., [2014]; Srisuknimit et al., [2017]) in addition to its expected CPase activity.

[4] = test system: ceftobiprole-resistant Staphylococcus aureus strain (CRB); settings: pbp4 mutations giving E183A and F241R; ref Banerjee et al., 2010; cited from earlier work
Source text: The replacement of E183 by an alanine disrupts the Van-der-Waals interaction between this residue and ...

PBP4(S75C) [5] = experiment: PBP4(S75C) acylation by imipenem, native mass spectrometry; format: binding, Staphylococcus aureus; settings: 1.25 mM imipenem, ~23°C, 30 min, pH 6; MS
Experimental: For mass spectrometry analysis, samples were thawed and diluted 500 times in 5% acetonitrile and 0.1% formic acid. 5 μL of each sample was injected onto a 5-mm C4 column connected to a Waters Xevo GS-2 QTof mass spectrometer via a NanoAquity UPLC system. Samples were eluted in a 2-min gradient from 5 to 100% acetonitrile at a flow rate of 20 μL min^−1. Mass spectra (Supplementary Figure S3) were summed and peak masses deconvoluted using Waters' MassLynx software (V4.1).

PBP4(S75C) [6] = experiment: Liquid-state NMR titration (15N-BEST-TROSY chemical shift perturbation); format: binding, Staphylococcus aureus; settings: lactoyl-tetrapeptide up to 52 molar equivalents, 326 μM protein; 25°C, 50 mM potassium phosphate pH 6.5
Experimental: NMR Titration Experiments
Interaction studies with ^15N-labeled PBP4(S75C) and different substrates were monitored by superimposition of ^15N-BEST-TROSY spectra at 25°C for different substrate-to-protein ratio. Synthetic peptide stems and peptidoglycan fragments were extensively dialyzed against water using a Spectra/PorTM dialysis membrane with a 100–500 Da cutoff (Spectrum Laboratories, Inc.) and lyophilized before preparation of a few-mM stock solution in the protein buffer, with 50 mM potassium phosphate at pH 6.5. A 326-μM solution of PBP4(S75C) was titrated with 2, 8, 22, and 52 molar equivalents of tetrapeptide. […] CcpNmr was used to monitor protein chemical shift perturbations (CSP) for every assigned amide resonance by superimposition of the ^15N-BEST-TROSY spectra. CSPs (Δδ) were calculated on a per-residue basis for the highest substrate-to-protein ratio as follows:
where γN and γH are the ^1H and ^15N gyromagnetic ratios, respectively, and δ^XPBP4(S75C):sub , and δ^XPBP4(S75C) are the protein resonance chemical shift value in the presence and absence, respectively, of the substrate at the highest ratio.
The following substrates were added at 25 °C on 150 -µM PBP4(S75C) solution
in 50 mM potassium phosphate buffer, pH 6.5: (A) Tetrapeptide at approximately 52 molar […]
overlapped residues, for which CSPs could not be determined.

PBP4 [7] = settings: 10 μM PBP4, 10 mM Tris/HCl pH 7.5, 10 mM MgCl2, 0.1% Triton X-100, 37°C overnight; HPLC
Experimental: Assays were carried out in a final volume of 50 μL containing 10 mM Tris/HCl at pH 7.5, 10 mM MgCl2, 0.1% Triton X-100, and 10 μM PBP4 or PBP4(S75C). A ~5 mg mL^−1 suspension of PG or 25 μL of a ~5 mg mL^−1 solution of muropeptides were added and the reaction mixture was incubated at 37°C overnight. The enzymatic reaction was stopped by boiling the samples for 10 min. Muropeptides were reduced and analyzed by HPLC as described (Boneca et al., [1997]).

[8] = molecular target: 15N-labeled PBP4(S75C) from Staphylococcus aureus, His-tag not cleaved (NMR sample) (S. aureus); experiment: NMR titration; 15N-BEST-TROSY spectra at 25°C; 326 μM 15N-labeled PBP4(S75C) titrated with 2, 8, 22 and 52 molar equivalents of unlabeled tetrapeptide; 50 mM potassium phosphate pH 6.5

Molecule: CC1(C)S[C@@H]2[C@H](NC(=O)[C@H](N)c3ccccc3)C(=O)N2[C@H]1C(=O)O [ampicillin]
- electron density of soaked ligand, PBP4 crystals (PBP4 [1]): unable to identify electron density
- electron density of soaked ligand, PBP4(S75C) crystals (PBP4(S75C) [2]): unable to identify electron density

Molecule: CO/N=C(\C(=O)N[C@@H]1C(=O)N2C(C(=O)O)=CCS[C@H]12)c1csc(N)n1 [ceftizoxime]
- susceptibility on deletion of PBP4 [3]: increase in ceftizoxime susceptibility

Molecule: Nc1nc(/C(=N/O)C(=O)N[C@@H]2C(=O)N3C(C(=O)O)=C(/C=C4\CCN([C@@H]5CCNC5)C4=O)CS[C@H]23)ns1 [ceftobiprole]
- resistance of CRB strain [4]: resistant

Molecule: C[C@@H](O)[C@H]1C(=O)N2C(C(=O)O)=C(SCCN=CN)C[C@H]12 [imipenem]
- acylation of PBP4(S75C) (PBP4(S75C) [5]): binds covalently to PBP4S75C, to form a stable acylenzyme; also recorded: sensitive to acylation

Molecule: HO-D-Lac-L-Ala-D-iGln-L-Lys(Gly)5-D-Ala-COOH [lactoyl-tetrapeptide]
- chemical shift perturbations for the amide resonances of PBP4(S75C) (PBP4(S75C) [6]): did not create any significant chemical shift perturbations

Molecule: HO-D-Lac-L-Ala-D-iGln-[L-Lys(Gly)5]-D-Ala-D-Ala-COOH [pentapeptide, synthetic branched lactoyl-peptide resembling the native S. aureus PG stem]
- electron density of soaked ligand, PBP4 crystals (PBP4 [1]): unable to identify electron density
- electron density of soaked ligand, PBP4(S75C) crystals (PBP4(S75C) [2]): unable to identify electron density

Molecule: disaccharide pentapeptide(Gly5) [disaccharide pentapeptide(Gly5) (peak5)]
- DD-CPase activity of PBP4: conversion of monomeric muropeptide (PBP4 [7]): nearly quantitatively converted to disaccharide tetrapeptide(Gly5) (peak A)

B1: HO-D-Lac-L-Ala-D-iGln-L-Lys(Gly)5-D-Ala-COOH tetrapeptide (peptide)
chain 1: {HO‑D‑Lac}-A[diGln]K[dA]-OH
chain 2: GGGGG
modifications: not fully specified (some residues); also: chain 2 (Gly)5 attached to Lys side chain
- Kd [8]: > 110 mM
